Laboratory results: US7112318B2, “Non-invasive diagnostic imaging technology for mitochondria dysfunction using radiolabeled lipophilic salts” (The Johns Hopkins University, priority 2002, dated 2006)
Several values for one entry are separate records, joined by “and”; a condition that tells them apart may be missing. Equal entries are not always repeated. Where two headings read alike, the source gives them in different places.

Key:
myocardium [1] = conditions: cited from earlier work; for myocardial extraction under baseline / normal flow: baseline or normal flow; for myocardial extraction at increased flow: five-fold increases in flow rate / high flow rates
[2] = Biodistribution in mice 60 min after i.v. injection; conditions: 60 min after iv. injection
Experimental: (§1) Three to five mice were used for the biodistribution study of each tracer. Nonanesthetized animals were injected i.v. with tracer solution (FBnTP or FPTP, TPMP 25 μCi; MIBI 40 μCi; TPP 2 μCi, all in a volume of 0.2 mL saline) then killed by neck dislocation at 60 min after injection. The organs and tissues of interest were removed and counted by a radioactivity counter along with standards (1:1000) (LKB Wallac, 1282 Compugamma CS).

myocardium [3] = assay: C-11-TPMP uptake kinetics in the myocardium (dog PET, LAD occlusion); type: in vivo
Experimental: We have examined the performance of C-11-triphenyl phosphonium cation (TPMP) for assessing regional myocardial flow in dog using PET (Kraus, 1994).
Methods: Four mCi of C-11-TPMP were introduced i.v., and dynamic images of increasing duration (15 sec to 20 min) were acquired over a total time of 85 min. Images were acquired on the GE 4096+ PET scanner (15 slices, 6.5 mm slice thickness). Images were reconstructed using backprojection, and corrected for attenuation. A detailed description of methods appears in Kraus, 1994.
To investigate the relationship between myocardial blood flow and C-11-TPMP uptake in the heart, the LAD was occluded and the C-11-TPMP accumulation in tissue samples compared to microsphere determined regional myocardial blood flow. A significant correlation (r=0.93, p<0.01) was found at 5 min after LAD occlusion (FIG. 12). The non-infracted/infracted myocardium ratio was 12.1±2.4.

FCA-induced inflammation = assay: Accumulation in FCA-induced inflammation tissue and healthy muscle; type: in vivo; conditions: rats, 3 days after administration of FCA
Experimental: 0.1 ml of nitrosomethyl urea (NUM) was introduced i.p in female rats (150 g). When tumor reached an approximate size of 1 to 1.5 cm, FCA was injected (0.15 ml) to the hind limb footpad. Uptake assays were carried out 3 days thereafter. F-18-FBnTP (0.25 mCi) was injected via tail vein. Sixty minutes later tumor, inflamed tissue and healthy muscle tissue of the opposite limb (control) were collected on ice, weighed and counted in a gamma counter together with standards.
The accumulation of the novel F-18-phosphonium cations, F-18-FBnTP and F-18-fluoropropyl triphenyl phosphonium (F-18-FPTP) in comparison with F-18-FDG in FCA-induced inflammation and healthy tissue is presented in Table 2. Induction of inflammation and activity counting were carried out as described above.

[4] = mouse, in vivo, iv, 60 min
Experimental: as §1

prostate carcinoma = assay: Tumor selectivity in orthotopic model of prostate carcinoma; type: in vivo; conditions: nude mice, normalized to muscle
Experimental: Methods: 2×10^6 cells were injected, under anesthesia, into the prostate epithelial tissue of nude mice. When tumor reached an approximate size of 5 mm, uptake assays were performed as described above. Tumor selectivity of F-18-FBnTP and F-18-FDG was compared (3 mice in each group)

SMILES	myocardial extraction under baseline / normal flow (myocardium [1])	myocardial extraction at increased flow (myocardium [1])	biodistribution, blood [2] [% ID/g]	biodistribution, heart [2] [% ID/g]	biodistribution, kidney [2] [% ID/g]	biodistribution, liver [2] [% ID/g]	biodistribution, lung [2] [% ID/g]	biodistribution, muscle [2] [% ID/g]	biodistribution, spleen [2] [% ID/g]	biodistribution, brain [2] [% ID/g]	Inf/Control (FCA-induced inflammation)	accumulation, Control (healthy muscle) (FCA-induced inflammation)	accumulation, Inflammation (FCA-induced inflammation)	other results
[201Tl] [Thallium 201]	about 80%	about 60%												
[11CH3][P+](c1ccccc1)(c1ccccc1)c1ccccc1 [[11C]TPMP, C-11-triphenylmethyl phosphonium]			0.03 ± 0.00	13.4 ± 0.95	3.79 ± 0.83	5.68 ± 0.60	2.20 ± 0.21	2.49 ± 0.35	1.43 ± 0.18					extraction fraction in the heart (myocardium [3]; baseline conditions, flow=69 ml/min/100 g): 91%; decrease of the extraction fraction (myocardium [3]; five-fold increase in flow by adenosine): 39%
[18F]CCC[P+](c1ccccc1)(c1ccccc1)c1ccccc1 [[18F]FPTP, [^18F]3-fluoropropyltriphenyl-phosphonium ion]			0.01 ± 0.00	9.86 ± 0.82	5.74 ± 0.54	4.22 ± 1.79	2.02 ± 0.34	2.06 ± 0.53	1.23 ± 0.26	0.03 ± 0.00	0.25 ± 0.04	0.29 ± 0.06 % ID/g tissue	0.07 ± 0.01 % ID/g tissue	accumulation, Blood (FCA-induced inflammation): *0.037 ± 0.01 % ID/g tissue
c1ccc([P+](c2ccccc2)(c2ccccc2)c2ccccc2)cc1 [[^3H]TPP, tetraphenyl phosphonium]														biodistribution, blood [4]: 0.09 ± 0.02 % ID/g; biodistribution, brain [4]: 0.06 0.02 % ID/g; biodistribution, heart [4]: 20.7 ± 1.92 % ID/g; biodistribution, kidney [4]: 4.37 ± 0.66 % ID/g; biodistribution, liver [4]: 6.12 ± 1.08 % ID/g; biodistribution, lung [4]: 2.81 ± 0.41 % ID/g; biodistribution, muscle [4]: 2.22 ± 0.41 % ID/g; biodistribution, spleen [4]: 1.93 ± 0.47 % ID/g
OC[C@H]1OC(O)[C@H]([18F])[C@@H](O)[C@@H]1O (stereo partly drawn) [[^18F]FDG, reference compound]											2.12 ± 0.73 and 1.20 ± 0.29	0.68 ± 0.14 % ID/g tissue and 1.05 ± 0.35 % ID/g tissue	1.42 ± 0.53 % ID/g tissue and 1.20 ± 0.16 % ID/g tissue	uptake ratio of malignant-to-normal prostate tissue (prostate carcinoma): 1.25
[99Tc].[C-]#[N+]CC(C)(C)OC.[C-]#[N+]CC(C)(C)OC.[C-]#[N+]CC(C)(C)OC.[C-]#[N+]CC(C)(C)OC.[C-]#[N+]CC(C)(C)OC.[C-]#[N+]CC(C)(C)OC [[^99mTc]MIBI, Tc-99m-sestamibii, reference compound]	about 60%	40%	0.26 ± 0.05	5.08 ± 0.25	12.6 ± 2.57	5.55 ± 1.08	0.98 ± 0.19	1.56 ± 0.31	1.27 ± 0.33	0.08 ± 0.04				
